ChEMBL document CHEMBL1139251, “Urea based CCR3 antagonists employing a tetrahydro-1,3-oxazin-2-one spacer” (Bioorg Med Chem Lett, 2009)

Legend:
Cytochrome P450 2D6 = Cytochrome P450 2D6 (Homo sapiens, UniProt P10635); experiment: Inhibition of CYP2D6; format: ADME
Eosinophil = experiment: Induction of shape change in human eosinophils by flow cytometry; format: functional, cell-based
[1] = target: T1, C-C chemokine receptor type 3 (Homo sapiens, UniProt P51677); experiment: Binding affinity to CCR3 receptor
T1 sequence (P51677 whole entry): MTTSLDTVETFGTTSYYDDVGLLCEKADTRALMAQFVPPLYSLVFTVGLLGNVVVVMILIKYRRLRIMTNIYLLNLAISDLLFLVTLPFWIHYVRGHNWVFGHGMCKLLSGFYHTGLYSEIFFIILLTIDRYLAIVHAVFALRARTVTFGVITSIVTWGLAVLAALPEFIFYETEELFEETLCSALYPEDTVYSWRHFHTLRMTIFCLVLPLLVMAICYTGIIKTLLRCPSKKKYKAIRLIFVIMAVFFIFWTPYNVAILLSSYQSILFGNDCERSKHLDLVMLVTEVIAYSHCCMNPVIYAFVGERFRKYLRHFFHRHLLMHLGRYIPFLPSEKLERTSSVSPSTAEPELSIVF

[2] = target: Voltage-gated inwardly rectifying potassium channel KCNH2 (Homo sapiens, UniProt Q12809); experiment: Inhibition of human ERG by calcium-flux based assay
Liver microsomes = experiment: Metabolic stability in human liver microsomes; format: ADME, Microsome

Chain of Cytochrome P450 2D6 (P10635 whole entry): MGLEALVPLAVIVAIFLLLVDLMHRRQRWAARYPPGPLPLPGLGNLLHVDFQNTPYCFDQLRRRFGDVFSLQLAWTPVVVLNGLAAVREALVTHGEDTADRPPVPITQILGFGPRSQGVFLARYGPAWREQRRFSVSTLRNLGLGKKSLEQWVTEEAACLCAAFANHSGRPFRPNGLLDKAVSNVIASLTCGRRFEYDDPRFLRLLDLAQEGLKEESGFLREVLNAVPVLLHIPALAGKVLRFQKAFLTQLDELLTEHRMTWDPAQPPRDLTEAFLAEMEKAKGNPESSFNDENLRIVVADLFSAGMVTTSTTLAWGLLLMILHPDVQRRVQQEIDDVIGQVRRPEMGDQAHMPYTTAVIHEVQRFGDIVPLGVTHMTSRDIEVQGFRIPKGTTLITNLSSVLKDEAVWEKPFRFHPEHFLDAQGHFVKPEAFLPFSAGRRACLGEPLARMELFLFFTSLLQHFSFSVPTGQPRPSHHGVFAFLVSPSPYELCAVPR
Chain of Voltage-gated inwardly rectifying potassium channel KCNH2 (Q12809 whole entry): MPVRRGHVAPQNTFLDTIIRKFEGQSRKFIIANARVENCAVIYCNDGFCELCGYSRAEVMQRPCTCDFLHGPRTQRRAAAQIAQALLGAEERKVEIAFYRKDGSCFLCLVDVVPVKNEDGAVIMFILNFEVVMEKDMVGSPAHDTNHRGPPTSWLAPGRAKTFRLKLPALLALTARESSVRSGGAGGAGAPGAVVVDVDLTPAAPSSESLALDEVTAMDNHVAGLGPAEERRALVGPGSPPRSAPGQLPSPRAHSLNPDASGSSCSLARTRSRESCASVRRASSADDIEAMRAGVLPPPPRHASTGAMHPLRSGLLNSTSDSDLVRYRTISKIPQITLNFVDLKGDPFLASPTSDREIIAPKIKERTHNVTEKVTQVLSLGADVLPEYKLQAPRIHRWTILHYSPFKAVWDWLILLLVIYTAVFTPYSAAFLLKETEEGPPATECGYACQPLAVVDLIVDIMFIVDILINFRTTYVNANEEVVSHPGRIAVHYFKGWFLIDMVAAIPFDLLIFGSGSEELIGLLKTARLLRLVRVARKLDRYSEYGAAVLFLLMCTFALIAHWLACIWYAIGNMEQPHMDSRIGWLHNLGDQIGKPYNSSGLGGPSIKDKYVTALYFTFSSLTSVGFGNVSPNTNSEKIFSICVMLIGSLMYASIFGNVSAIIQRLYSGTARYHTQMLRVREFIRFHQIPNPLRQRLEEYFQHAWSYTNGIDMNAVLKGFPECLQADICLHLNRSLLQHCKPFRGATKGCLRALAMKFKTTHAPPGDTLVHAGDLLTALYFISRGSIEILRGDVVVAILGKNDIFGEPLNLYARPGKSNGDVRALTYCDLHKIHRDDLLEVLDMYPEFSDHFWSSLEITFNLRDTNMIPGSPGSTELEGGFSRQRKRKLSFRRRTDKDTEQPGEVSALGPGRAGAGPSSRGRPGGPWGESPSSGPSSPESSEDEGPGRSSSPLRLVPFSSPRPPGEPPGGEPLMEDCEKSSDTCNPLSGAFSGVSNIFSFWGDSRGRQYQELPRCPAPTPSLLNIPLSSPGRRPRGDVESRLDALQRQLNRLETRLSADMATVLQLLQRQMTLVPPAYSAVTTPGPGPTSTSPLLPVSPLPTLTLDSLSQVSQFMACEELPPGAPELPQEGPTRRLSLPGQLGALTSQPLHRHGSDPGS

| SMILES | IC50 (Eosinophil; Homo sapiens, Eosinophil) [nM] | IC50 (Cytochrome P450 2D6) [nM] | IC50 [1] [nM] | further results |
| --- | --- | --- | --- | --- |
| CN1C[C@@H](NC(=O)Nc2cccc(-c3nnnn3C)c2)[C@H](CN2CCC[C@@H](Cc3ccc(F)cc3)C2)OC1=O |  | 4300 | 0.23 |  |
| CCCN(CCCc1ccc(F)cc1)C[C@@H]1OC(=O)N(C)C[C@H]1NC(=O)Nc1nc(C)cs1 |  |  | 9.2 |  |
| CN1CC(C)(NC(=O)Nc2cccc(-c3nnnn3C)c2)C(CN2CCC[C@@H](Cc3ccc(F)cc3)C2)OC1=O (mixture of isomers; 19a) |  | 33000 | 0.12 | IC50 (Eosinophil; eosinophil): 2.4 nM |
| CN1CC(C)(NC(=O)Nc2cccc(-c3nnnn3C)c2)C(CN2CCC[C@@H](Cc3ccc(F)cc3)C2)OC1=O.Cl (mixture of isomers; 19b) |  | 17000 | 0.15 | IC50 (Eosinophil; eosinophil): 0.13 nM; IC50 [2]: 15700 nM; Stability (Liver microsomes): Unstable |
| Cc1csc(NC(=O)NC2(C)CN(C)C(=O)OC2CN2CCC[C@@H](Cc3ccc(F)cc3)C2)n1 (mixture of isomers; 20a) |  |  | 5.4 |  |
| Cc1csc(NC(=O)NC2(C)CN(C)C(=O)OC2CN2CCC[C@@H](Cc3ccc(F)cc3)C2)n1 (mixture of isomers; 20b) | 3.4 | 2100 | 0.37 |  |
| CN1CC(C)(NC(=O)Nc2nc(C(C)(C)C)cs2)C(CN2CCC[C@@H](Cc3ccc(F)cc3)C2)OC1=O (mixture of isomers; 22a) |  |  | 44 |  |
| CN1CC(C)(NC(=O)Nc2nc(C(C)(C)C)cs2)C(CN2CCC[C@@H](Cc3ccc(F)cc3)C2)OC1=O (mixture of isomers; 22b) |  | 40000 | 5.5 |  |
| CCN(CCCc1ccc(F)cc1)CC1OC(=O)N(C)CC1(C)NC(=O)Nc1cccc(-c2nnnn2C)c1 (mixture of isomers; 23a) |  | 5900 | 0.18 | IC50 (Eosinophil; eosinophil): 4.4 nM |

Continued, in another order:

| IC50 (Eosinophil; Homo sapiens, Eosinophil) [nM] | IC50 (Cytochrome P450 2D6) [nM] | IC50 [1] [nM] | SMILES | further results |
| --- | --- | --- | --- | --- |
| 0.038 |  |  | C[C@@H](NC(=O)Nc1cccc(-c2nnnn2C)c1)[C@@H](O)CN1CCC[C@@H](Cc2ccc(F)cc2)C1 | Ki (Cytochrome P450 2D6): 2600 nM |
| 2.2 |  | 2.1 | CN1C[C@@H](NC(=O)Nc2cccc(-c3nnnn3C)c2)[C@H](CN(CCCc2ccc(F)cc2)C2CC2)OC1=O |  |
|  | 21000 | 1.1 | CC(=O)c1sc(NC(=O)NC2(C)CN(C)C(=O)OC2CN2CCC[C@@H](Cc3ccc(F)cc3)C2)nc1C (mixture of isomers) |  |
| > 3 | 14000 | 0.47 | CCN(CCCc1ccc(F)cc1)CC1OC(=O)N(C)CC1(C)NC(=O)Nc1cccc(-c2nnnn2C)c1 (mixture of isomers; 23b) |  |
